Source: patent publication US20150258059A1, “ANTIMICROBIAL AND RADIOPROTECTIVE COMPOUNDS” (BioDiem, Ltd, priority 2001, published 2015)
≈ marks a conversion by molar mass, not a printed value. Like-named read-outs stand apart in the source and are kept apart here.

Tests used:
[1] = system: Enterobacter aerogenes B-687; experiment: Sensitivity of strains: suppression of growth; assay type: cell-based; details: Compound (1) 1.0%; antibiotics disc method
[2] = system: Shigella flexneri M-2A6907; experiment: Sensitivity of strains: suppression of growth; assay type: cell-based; details: Compound (1) 1.0%; antibiotics disc method
Acinetobacter B-677 = experiment: Sensitivity of strains: suppression of growth; assay type: cell-based; details: Compound (1) 1.0%; antibiotics disc method
[3] = system: Staphylococcus aureus B-685; experiment: Sensitivity of strains: suppression of growth; assay type: cell-based; details: Compound (1) 1.0%; antibiotics disc method
[4] = system: Staphylococcus aureus B-674; experiment: Sensitivity of strains: suppression of growth; assay type: cell-based; details: Compound (1) 1.0%; antibiotics disc method
[5] = system: γ-hemolytic streptococcus B-672; experiment: Sensitivity of strains: suppression of growth; assay type: cell-based; details: Compound (1) 1.0%; antibiotics disc method
[6] = system: β-hemolytic streptococcus B-624; experiment: Sensitivity of strains: suppression of growth; assay type: cell-based; details: Compound (1) 1.0%; antibiotics disc method
Trichophyton = experiment: Sensitivity of pathogenic fungi; assay type: cell-based; details: Inoculation 10^2
Pseudomonas = experiment: Agar plug diffusion, zone of retardation; assay type: cell-based, Pseudonomas aeruginosa; details: plug impregnated at 0.5%
[7] = system: S. aureus-clinical isolate 2; experiment: microbe, parasite or virus in culture; assay type: cell-based
Excerpt: NCCLS-USA Standard Method—Broth microdilution (or macrodilution) (Mueller-Hinton).
Inoculum 1-4×10^4 cfu (or −4×10^5 cfu). Ciprofloxacin test control. Chlorhexidine values added for disinfectant and antiseptic activity comparison.

[8] = system: E. faecalis-clinical isolate 1; experiment: microbe, parasite or virus in culture; assay type: cell-based
[9] = system: Streptococcus pneumonia ATCC49619; experiment: NCCLS broth microdilution MIC/MBC; assay type: cell-based; details: Table 9, 35° C., 24 hours
[10] = system: Corynebacterium xerosis RMIT; experiment: NCCLS broth microdilution MIC/MBC; assay type: cell-based; details: for MIC: Corynebacterium xerosis
Klebsiella pneumoniae = experiment: NCCLS broth microdilution MIC/MBC; assay type: cell-based; details: for MIC: Klebsiella pneumoniae
Salmonella typhimurium [11] = experiment: NCCLS broth microdilution MIC/MBC; assay type: cell-based
Candida albicans [12] = experiment: NCCLS broth macro-dilution MIC/MFC (RPMI); assay type: cell-based; details: Table 10, 4 day, 30° C.
Fusarium graminearum = experiment: microbe, parasite or virus in culture; assay type: cell-based
Aspergillus fumigatus = experiment: microbe, parasite or virus in culture; assay type: cell-based; details: for MIC: Aspergillus fumigatus
B. subtilis = experiment: Antibacterial activity in the presence of blood, macrodilution; assay type: cell-based; details: for MIC: Bacillus subtilis
[13] = system: C. guillermondii RMIT 176; experiment: M38-P microdilution MIC/MFC; assay type: cell-based; details: Table 16, 24 h, 35° C.
F. chlamydosporum = experiment: M38-P microdilution MIC/MFC; assay type: cell-based; details: Table 16, 48 h, 35° C.
[14] = system: clinical isolate of Trichomonas vaginalis; experiment: microbe, parasite or virus in culture; assay type: cell-based
S. pyogenes = experiment: Broth dilution bioassay, low inoculum; assay type: cell-based; details: in MHB
[15] = system: skin wounds infected by Streptococcus and Staphylococcus; experiment: Treatment of infected wounds, human volunteers; assay type: in vivo; details: 0.1% ointment for 3 days
Method: Human volunteers suffering from skin wounds infected by Streptococcus and Staphylococcus were treated with 0.1% Compounds (1) and (2) in an ointment base of vaseline, sheep fat, and sulfoxide.

Klebsiella oxytoca = experiment: Rate of kill, viable counts
[16] = system: Klebsiella pneumoniae strain 312; experiment: Impregnated agar serial double dilutions; details: meat peptone agar
Candida albicans [17] = experiment: Impregnated agar serial double dilutions; details: meat peptone agar
Staphylococcus aureus = experiment: Agar plug diffusion, zone of retardation; details: plug impregnated at 0.5%
Enterococcus faecalis = experiment: Agar plug diffusion, zone of retardation; details: plug impregnated at 0.5%
Salmonella typhimurium [18] = experiment: Agar plug diffusion, zone of retardation; details: plug impregnated at 0.5%
[19] = system: Campylobacter jejuni 54/1-2; experiment: MIC/MMC against clinical strains of Campylobacter spp.; details: Table 18; clinical strain isolated from humans
C. hyointestinalis 54/4 = experiment: as above; details: Table 18; clinical strain isolated from humans
C. laniolis 54/6 = experiment: as above; details: Table 18; clinical strain isolated from humans

C/C(=C\c1ccc2c(c1)OCO2)[N+](=O)[O-] [Compound (1)]
Suppression of Growth (+/−) [1]: +
Suppression of Growth (+/−) [2]: +
Suppression of Growth (+/−) (Acinetobacter B-677): +
Suppression of Growth (+/−) [3]: +
Suppression of Growth (+/−) [4]: +
Suppression of Growth (+/−) [5]: +
Suppression of Growth (+/−) [6]: +
Number of microbes: Growth (Trichophyton; 0.1%): 0
Number of microbes: Retardation (Trichophyton; 0.1%): 10^7
Number of microbes: Growth (Trichophyton; 0.5%): 0
Number of microbes: Retardation (Trichophyton; 0.5%): 10^7
Number of microbes: Growth (Trichophyton; 2.0%): 0
Number of microbes: Retardation (Trichophyton; 2.0%): 10^7
Size of zone of retardation of the growth (Pseudomonas): 0
MIC ([7]; Staphylococcus aureus, 24 h): 16 µg/mL (≈ 77.2 µM)
MMC ([7]; Table 9, 35° C., 24 hours): 16 µg/mL
MMC ([7]; Table 17, 2 or 3 replicates): 16 µg/mL
MMC [8]: 32 µg/mL
MMC ([8]; 35° C., 24 hours): 32 µg/mL
MIC ([8]; Enterococcus faecalis, 35° C., 24 hours): 32 µg/mL (≈ 154 µM)
MIC ([9]; Streptococcus pneumoniae, ATCC49619): 16 µg/mL (≈ 77.2 µM)
MMC [9]: 32 µg/mL
MIC ([10]; Table 9, 35° C., 24 hours): 32.2 µg/mL (≈ 155 µM)
MIC ([10]; Table 17, 2 or 3 replicates): 32 µg/mL (≈ 154 µM)
MMC ([10]; Table 9, 35° C., 24 hours): 32.16 µg/mL
MMC ([10]; Table 17, 2 or 3 replicates): 32 µg/mL
MIC (Klebsiella pneumoniae; Table 9, 35° C., 24 hours): 512 µg/mL (≈ 2470 µM)
MIC (Klebsiella pneumoniae; Table 17, 2 or 3 replicates): 512 µg/mL (≈ 2470 µM)
MMC (Klebsiella pneumoniae; Table 9, 35° C., 24 hours): >512 µg/mL
MMC (Klebsiella pneumoniae; Table 17, 2 or 3 replicates): >512 µg/mL
MIC (Salmonella typhimurium [11]; Salmonella enterica, TYPHIMURIUM, 24 h): 256 µg/mL (≈ 1240 µM)
MMC (Salmonella typhimurium [11]; Table 9, 35° C., 24 hours): >512 µg/mL
MIC (Candida albicans [12]; Candida albicans, 96 h): 8 µg/mL (≈ 38.6 µM)
MMC (Candida albicans [12]): 8 µg/mL
MIC (Fusarium graminearum; Fusarium graminearum, 168 h): 4 µg/mL (≈ 19.3 µM)
MMC (Fusarium graminearum; Table 10, 7 day, 30° C.): 8 µg/mL
MIC (Aspergillus fumigatus; Table 20, […], after 12 weeks continuous exposure, read-out: MIC Final): 8 µg/mL (≈ 38.6 µM)
MIC (Aspergillus fumigatus; Table 20, […], parent strain, read-out: MIC Initial): 8 µg/mL (≈ 38.6 µM)
MIC (Aspergillus fumigatus; before exposure, MHB, read-out: Standard MIC Initial): 8 µg/mL (≈ 38.6 µM)
7-Day MIC Range (Aspergillus fumigatus; to Wk 5): 8-32 to Wk 5 μg/mL
MMC (B. subtilis; 5% blood): 16 µg/mL
MMC (B. subtilis; 10% plasma): 8 µg/mL
MIC (B. subtilis; 5% blood): 8 µg/mL
MIC (B. subtilis; 10% plasma): 8 µg/mL
MIC (B. subtilis; — (no plasma or blood)): 16 µg/mL
MMC [13]: 2 µg/mL
MIC ([13]; read-out: MIC): 2 µg/mL (≈ 9.65 µM)
MMC (F. chlamydosporum): 8 µg/mL
MIC (F. chlamydosporum; read-out: MIC): 8 µg/mL (≈ 38.6 µM)
MMC [14]: 4 µg/mL
MIC ([14]; Trichomonas vaginalis, 24 h): 4 µg/mL (≈ 19.3 µM)
concentration inhibiting low inoculum (S. pyogenes): 1 µg/mL
clearing of infected wound [15]: cleared the wound completely of pus
pH (in 50% v./v. ethanol): approximately neutral
Log reduction in viable count (Klebsiella oxytoca; 256 μg/mL): 0
Log reduction in viable count (Klebsiella oxytoca; 512 μg/mL): 0
Minimal % Compound (1) giving complete inhibition of test culture [16]: 0.12%
Minimal % Compound (1) giving complete inhibition of test culture (Candida albicans [17]): 0.5%
Size of zone of retardation of the growth (Staphylococcus aureus): 6.5
Size of zone of retardation of the growth (Enterococcus faecalis): 6
Size of zone of retardation of the growth (Salmonella typhimurium [18]): 7
MMC [19]: 2
MMC (C. hyointestinalis 54/4): 2
MMC (C. laniolis 54/6): 2
